Holding throughout (type): cell-based
Experiment [1] addresses T1, EGFR L858R/C797S (Ba/F3 cells) (Homo sapiens, UniProt P00533, C797S/L858R).
T1 construct: expressed in transfected cells; host or cells: Ba/F3 (murine pro-B cells), retroviral transduction, puromycin selection, IL3-independent pool
Description: Inhibitor activity on EGFR phosphorylation (pEGFR AlphaLISA, 2 h), Ba/F3 EGFR L858R/C797S. Summed up: (§1)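 IL3-independent Ba/F3 cells transduced with mutant EGFR (50K/well) or CUTO14 cells (12.5K/well) were treated 2 h with 10-point, 3-fold compound dilutions. Phospho-EGFR in lysates was measured by AlphaLISA to derive IC50.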

The target of experiment [2] is T2, EGFR L858R (Ba/F3 cells) (Homo sapiens, UniProt P00533, L858R).
T2 construct: expressed in transfected cells; host or cells: Ba/F3 (murine pro-B cells), retroviral transduction, puromycin selection, IL3-independent pool
Put plainly: Inhibitor activity on EGFR phosphorylation (pEGFR AlphaLISA, 2 h), Ba/F3 EGFR L858R. In a few lines:
as §1

In experiment [3] the target is T3, EGFR exon 20 NPG Ins D770_N771 (Ba/F3 cells) (Homo sapiens, UniProt P00533, INS770NPG).
T3 construct: expressed in transfected cells; host or cells: Ba/F3 (murine pro-B cells), retroviral transduction, puromycin selection, IL3-independent pool
Put plainly: Inhibitor activity on EGFR-dependent cell growth (CellTiter-Glo, 72 h), Ba/F3 EGFR exon 20 NPG Ins. The conditions noted are these: read-out: BaF3 NPG IC50. In a few lines: (§2)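 IC50s derive from a sigmoidal dose–response fit of CellTiter-Glo signal. The signal was normalised between […]-treated cells and cell-free medium. Ba/F3 mutant-EGFR cells, seeded at 400–800/well depending on the line, had 72 h of exposure to a 10-point, 3-fold compound series.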

The target in experiment [4] is T2, EGFR L858R (Ba/F3 cells). Description: Inhibitor activity on EGFR-dependent cell growth (CellTiter-Glo, 72 h), Ba/F3 EGFR L858R. The conditions noted are these: read-out: BaF3 L858R IC50. In a few lines:
(§3)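 72 h proliferation, Ba/F3 EGFR mutants (no IL3, puromycin-selected pools, EGFR confirmed by Western blot). Seeding of 400 L858R, 600 L858R/C797S and 800 exon 19del/FQEA cells per well. CellTiter-Glo used; controls were […] (high) and medium alone (low).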

Experiment [5] addresses T4, EGFR exon 19del (Ba/F3 cells) (Homo sapiens, UniProt P00533). Description: Inhibitor activity on EGFR phosphorylation (pEGFR AlphaLISA, 2 h), Ba/F3 EGFR exon 19del. The conditions noted are these: read-out: Del19 IC50 (pEGFR). Summed up:
as §1

For another experiment, the target named is T5, EGFR WT (Ba/F3 cells) (Homo sapiens, UniProt P00533).
T5 construct: expressed in transfected cells; host or cells: Ba/F3 (murine pro-B cells), retroviral transduction, puromycin selection, maintained with EGF
Put plainly: Inhibitor activity on EGFR-dependent cell growth (CellTiter-Glo, 72 h), Ba/F3 EGFR WT. Particulars: read-out: BaF3 WT IC50. Summed up: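 This growth assay used Ba/F3 cells that depend on wild-type EGFR and are kept in EGF without IL3. Compounds were made up as 10 mM DMSO stocks and diluted 3-fold over 10 points. 120 nL went onto 600 cells/well. After 72 hours, 40 μL CellTiter-Glo was added and luminescence read on EnVision after 30 min.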

For experiment [6], the target named is T4, EGFR exon 19del (Ba/F3 cells). Description: Inhibitor activity on EGFR-dependent cell growth (CellTiter-Glo, 72 h), Ba/F3 EGFR exon 19del. The conditions noted are these: Ba/F3 EGFR exon 19del cell growth, read-out: BaF3 Del19 IC50. In a few lines:
as §3

Experiment [7] concerns the target T1, EGFR L858R/C797S (Ba/F3 cells). Put plainly: Inhibitor activity on EGFR-dependent cell growth (CellTiter-Glo, 72 h), Ba/F3 EGFR L858R/C797S. Particulars: read-out: BaF3 L858R/C797S IC50. In a few lines: as §3
For a further experiment, the target named is EGFR (CUTO14 cells) (Homo sapiens, UniProt P00533). Description: Inhibitor activity on EGFR phosphorylation (pEGFR AlphaLISA, 2 h), CUTO14 cells. In a few lines: as §1
Experiment [8] addresses T6, EGFR exon 20 SVD Ins D770_N771 (Ba/F3 cells) (Homo sapiens, UniProt P00533, INS770SVD).
T6 construct: expressed in transfected cells; host or cells: Ba/F3 (murine pro-B cells), retroviral transduction, puromycin selection, IL3-independent pool
Put plainly: Inhibitor activity on EGFR-dependent cell growth (CellTiter-Glo, 72 h), Ba/F3 EGFR exon 20 SVD Ins. The conditions noted are these: read-out: BaF3 SVD IC50. In a few lines:
as §2

For experiment [9], the target named is T7, EGFR exon 20 ASV Ins V769_D770 (Ba/F3 cells) (Homo sapiens, UniProt P00533, INS769ASV).
T7 construct: expressed in transfected cells; host or cells: Ba/F3 (murine pro-B cells), retroviral transduction, puromycin selection, IL3-independent pool
Description: Inhibitor activity on EGFR-dependent cell growth (CellTiter-Glo, 72 h), Ba/F3 EGFR exon 20 ASV Ins. The conditions noted are these: read-out: BaF3 ASV IC50. In a few lines:
as §2

Experiment [10] addresses T8, EGFR exon 20 FQEA Ins A763_V764 (Ba/F3 cells) (Homo sapiens, UniProt P00533, INS763FQEA).
T8 construct: expressed in transfected cells; host or cells: Ba/F3 (murine pro-B cells), retroviral transduction, puromycin selection, IL3-independent pool
Description: Inhibitor activity on EGFR-dependent cell growth (CellTiter-Glo, 72 h), Ba/F3 EGFR exon 20 FQEA Ins. Particulars: read-out: BaF3 FQEA IC50. Summed up: as §3

Experimental findings from patent US20240101576A1, “HETEROCYCLIC INHIBITORS OF EGFR AND/OR HER2, FOR USE IN THE TREATMENT OF CANCER” (Scorpion Therapeutics, Inc., priority 2020, published 2024) are described below.

T2 sequence (P00533 25-1210 L858R): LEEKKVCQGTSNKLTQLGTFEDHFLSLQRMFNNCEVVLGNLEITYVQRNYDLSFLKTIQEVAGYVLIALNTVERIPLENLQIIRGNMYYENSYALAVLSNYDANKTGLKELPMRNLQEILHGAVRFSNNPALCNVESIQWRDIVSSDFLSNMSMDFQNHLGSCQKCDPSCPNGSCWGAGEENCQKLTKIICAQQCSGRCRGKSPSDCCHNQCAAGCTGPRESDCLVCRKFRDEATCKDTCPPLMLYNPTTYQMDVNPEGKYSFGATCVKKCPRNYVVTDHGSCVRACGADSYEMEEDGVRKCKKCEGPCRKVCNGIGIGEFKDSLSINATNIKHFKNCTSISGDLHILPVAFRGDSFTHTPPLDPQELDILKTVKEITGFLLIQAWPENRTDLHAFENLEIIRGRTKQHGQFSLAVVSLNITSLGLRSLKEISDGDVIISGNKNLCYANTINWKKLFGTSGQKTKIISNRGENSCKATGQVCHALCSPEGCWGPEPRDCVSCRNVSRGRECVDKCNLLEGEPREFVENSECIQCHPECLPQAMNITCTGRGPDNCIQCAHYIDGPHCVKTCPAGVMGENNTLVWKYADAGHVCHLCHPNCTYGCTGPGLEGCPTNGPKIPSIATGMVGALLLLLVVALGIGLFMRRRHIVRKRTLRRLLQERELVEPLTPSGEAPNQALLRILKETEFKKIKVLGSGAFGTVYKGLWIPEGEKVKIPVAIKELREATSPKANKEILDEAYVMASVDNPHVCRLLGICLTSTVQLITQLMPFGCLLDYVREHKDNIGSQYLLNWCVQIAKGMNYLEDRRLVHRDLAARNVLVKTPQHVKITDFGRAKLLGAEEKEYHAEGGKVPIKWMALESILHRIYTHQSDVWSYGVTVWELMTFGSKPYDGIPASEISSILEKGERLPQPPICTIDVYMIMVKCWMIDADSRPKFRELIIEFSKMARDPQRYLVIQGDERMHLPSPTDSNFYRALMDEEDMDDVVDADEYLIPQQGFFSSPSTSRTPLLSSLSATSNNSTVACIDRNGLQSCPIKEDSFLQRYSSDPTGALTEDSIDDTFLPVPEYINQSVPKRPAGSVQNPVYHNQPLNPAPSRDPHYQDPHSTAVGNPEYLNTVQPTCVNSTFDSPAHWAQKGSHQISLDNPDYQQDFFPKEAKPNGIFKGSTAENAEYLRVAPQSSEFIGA
T1 sequence (P00533 25-1210 C797S/L858R): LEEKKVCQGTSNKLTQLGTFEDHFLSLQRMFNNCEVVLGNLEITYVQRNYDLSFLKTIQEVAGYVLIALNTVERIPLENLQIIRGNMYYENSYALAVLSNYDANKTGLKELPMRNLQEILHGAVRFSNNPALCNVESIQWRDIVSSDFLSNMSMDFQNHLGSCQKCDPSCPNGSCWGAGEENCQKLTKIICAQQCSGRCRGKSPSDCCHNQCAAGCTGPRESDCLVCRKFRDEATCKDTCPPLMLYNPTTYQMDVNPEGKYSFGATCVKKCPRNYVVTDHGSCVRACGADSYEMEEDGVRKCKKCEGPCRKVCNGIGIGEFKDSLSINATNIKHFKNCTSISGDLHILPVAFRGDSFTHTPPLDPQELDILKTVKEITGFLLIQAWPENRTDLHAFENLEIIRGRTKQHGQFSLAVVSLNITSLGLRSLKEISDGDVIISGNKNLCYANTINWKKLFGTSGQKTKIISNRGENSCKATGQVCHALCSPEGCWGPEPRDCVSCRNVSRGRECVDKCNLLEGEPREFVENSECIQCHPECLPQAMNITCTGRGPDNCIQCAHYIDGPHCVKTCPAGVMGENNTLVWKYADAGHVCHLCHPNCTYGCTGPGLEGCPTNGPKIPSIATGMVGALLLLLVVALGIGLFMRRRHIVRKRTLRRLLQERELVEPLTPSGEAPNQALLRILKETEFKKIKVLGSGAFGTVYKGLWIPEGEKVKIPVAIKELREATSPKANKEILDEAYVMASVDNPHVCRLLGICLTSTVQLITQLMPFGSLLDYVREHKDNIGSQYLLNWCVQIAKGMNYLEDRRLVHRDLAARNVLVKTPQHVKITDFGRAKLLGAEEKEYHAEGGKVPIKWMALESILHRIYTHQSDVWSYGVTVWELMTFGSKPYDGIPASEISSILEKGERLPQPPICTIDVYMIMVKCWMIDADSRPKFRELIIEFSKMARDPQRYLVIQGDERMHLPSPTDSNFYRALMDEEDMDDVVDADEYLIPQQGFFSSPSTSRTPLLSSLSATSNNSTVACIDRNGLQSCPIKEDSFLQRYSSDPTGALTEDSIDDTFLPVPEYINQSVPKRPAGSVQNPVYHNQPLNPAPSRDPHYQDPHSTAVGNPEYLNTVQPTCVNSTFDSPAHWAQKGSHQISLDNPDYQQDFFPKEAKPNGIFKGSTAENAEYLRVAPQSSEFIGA
T7 sequence (P00533 with tags, fused parts or gaps INS769ASV): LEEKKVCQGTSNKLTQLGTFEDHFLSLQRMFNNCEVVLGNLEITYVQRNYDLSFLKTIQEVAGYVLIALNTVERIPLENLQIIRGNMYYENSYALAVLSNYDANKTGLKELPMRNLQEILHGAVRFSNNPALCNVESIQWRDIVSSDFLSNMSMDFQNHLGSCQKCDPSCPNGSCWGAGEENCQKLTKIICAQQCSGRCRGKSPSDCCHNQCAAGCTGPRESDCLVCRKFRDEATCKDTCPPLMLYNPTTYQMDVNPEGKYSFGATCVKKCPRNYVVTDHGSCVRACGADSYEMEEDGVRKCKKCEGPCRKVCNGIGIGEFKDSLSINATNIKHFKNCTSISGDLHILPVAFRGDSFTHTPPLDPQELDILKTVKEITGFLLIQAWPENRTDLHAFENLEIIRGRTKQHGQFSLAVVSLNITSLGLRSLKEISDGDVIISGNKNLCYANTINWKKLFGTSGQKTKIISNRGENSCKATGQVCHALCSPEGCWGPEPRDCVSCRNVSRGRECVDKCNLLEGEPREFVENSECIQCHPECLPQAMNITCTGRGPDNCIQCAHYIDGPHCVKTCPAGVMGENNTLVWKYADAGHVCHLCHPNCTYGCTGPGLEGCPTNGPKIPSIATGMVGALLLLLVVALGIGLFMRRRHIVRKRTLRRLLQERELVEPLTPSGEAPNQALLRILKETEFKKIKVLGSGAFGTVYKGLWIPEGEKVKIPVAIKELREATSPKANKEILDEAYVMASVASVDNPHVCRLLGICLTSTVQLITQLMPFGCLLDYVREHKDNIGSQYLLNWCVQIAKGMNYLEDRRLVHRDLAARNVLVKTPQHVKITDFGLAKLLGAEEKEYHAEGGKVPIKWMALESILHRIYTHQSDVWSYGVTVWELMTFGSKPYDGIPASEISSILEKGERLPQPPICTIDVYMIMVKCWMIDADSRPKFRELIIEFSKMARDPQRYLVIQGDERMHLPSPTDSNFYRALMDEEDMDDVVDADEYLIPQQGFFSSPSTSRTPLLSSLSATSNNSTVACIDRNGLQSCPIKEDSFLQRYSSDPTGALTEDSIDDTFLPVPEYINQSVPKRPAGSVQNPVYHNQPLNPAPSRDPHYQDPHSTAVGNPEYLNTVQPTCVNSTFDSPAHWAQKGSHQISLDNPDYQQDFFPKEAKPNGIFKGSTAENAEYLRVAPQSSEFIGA
T4 sequence (P00533 with tags, fused parts or gaps DEL746-750): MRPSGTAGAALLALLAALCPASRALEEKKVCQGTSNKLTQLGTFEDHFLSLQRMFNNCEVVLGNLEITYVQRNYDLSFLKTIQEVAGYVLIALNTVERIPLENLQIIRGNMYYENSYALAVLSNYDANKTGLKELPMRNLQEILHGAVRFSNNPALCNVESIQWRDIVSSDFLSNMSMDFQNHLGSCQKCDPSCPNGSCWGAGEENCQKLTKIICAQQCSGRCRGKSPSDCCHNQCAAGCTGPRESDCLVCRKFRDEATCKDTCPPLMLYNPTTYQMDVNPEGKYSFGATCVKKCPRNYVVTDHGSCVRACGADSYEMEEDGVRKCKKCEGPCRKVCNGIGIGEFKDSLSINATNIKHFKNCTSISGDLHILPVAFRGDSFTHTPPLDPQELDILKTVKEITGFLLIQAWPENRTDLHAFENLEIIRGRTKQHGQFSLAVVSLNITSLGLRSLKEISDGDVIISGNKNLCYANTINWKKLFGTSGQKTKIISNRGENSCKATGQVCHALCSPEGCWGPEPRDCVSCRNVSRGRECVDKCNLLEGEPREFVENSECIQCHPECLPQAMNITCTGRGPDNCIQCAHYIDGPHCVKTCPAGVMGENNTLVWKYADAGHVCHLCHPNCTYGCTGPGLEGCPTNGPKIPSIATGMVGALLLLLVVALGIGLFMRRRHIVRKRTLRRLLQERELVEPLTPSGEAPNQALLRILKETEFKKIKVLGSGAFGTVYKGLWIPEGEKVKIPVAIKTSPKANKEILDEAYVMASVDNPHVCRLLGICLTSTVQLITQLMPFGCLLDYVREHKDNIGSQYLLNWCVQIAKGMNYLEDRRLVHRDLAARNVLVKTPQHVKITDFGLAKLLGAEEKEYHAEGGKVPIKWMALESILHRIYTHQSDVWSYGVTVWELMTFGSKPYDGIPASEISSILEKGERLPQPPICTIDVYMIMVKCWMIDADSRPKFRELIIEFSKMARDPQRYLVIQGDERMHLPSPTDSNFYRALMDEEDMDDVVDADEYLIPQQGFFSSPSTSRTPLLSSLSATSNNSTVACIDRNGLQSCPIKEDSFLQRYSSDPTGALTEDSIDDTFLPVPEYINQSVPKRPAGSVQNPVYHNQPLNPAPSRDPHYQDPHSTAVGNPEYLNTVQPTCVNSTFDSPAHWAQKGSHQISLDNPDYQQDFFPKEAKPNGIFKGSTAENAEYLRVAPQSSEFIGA

For `COc1c(Cl)cccc1Nc1c(-c2ccncn2)[nH]c2c1C(=O)NCC2C[C@H]1COCCO1` (single isomer, unassigned) [Compound 527, (7R*)-3-[(3-chloro-2-methoxyphenyl)amino]-7-[(2S)-1,4-dioxan-2-ylmethyl]-2-(pyrimidin-4-yl)-1H,5H,6H,7H-pyrrolo[3,2-c]pyridin-4-one], the IC50 in [1] was less than 100 nM; against EGFR L858R (Ba/F3 cells) [2] it was less than 100 nM; in experiment [3], less than 100 nM; at EGFR L858R (Ba/F3 cells) [4], less than 100 nM; in [5], less than 100 nM; at EGFR WT (Ba/F3 cells), 100 to 1000 nM. Also, the IC50 (in experiment [6]; in experiment [7]; at EGFR (CUTO14 cells)) was less than 100 nM throughout.
Turning to `COc1c(F)cccc1Nc1c(-c2ccnc(C)n2)[nH]c2c1C(=O)NCC2C[C@@H]1COCCO1` (single isomer, unassigned) [Compound 604], the IC50 (in experiment [1]; in [8]; against EGFR L858R (Ba/F3 cells) [2]; in experiment [3]; in [9]; on EGFR L858R (Ba/F3 cells) [4]) was less than 100 nM each time. Moreover, the IC50 in [10] is less than 100 nM; in experiment [5] it was less than 100 nM; on EGFR WT (Ba/F3 cells) it was 100 to 1000 nM; in [6], less than 100 nM; in [7], less than 100 nM; at EGFR (CUTO14 cells) it was less than 100 nM.
As for `COc1c(F)cccc1Nc1c(-c2ccnc(C)n2)[nH]c2c1C(=O)NCC2C[C@H]1COCCO1` (single isomer, unassigned) [Compound 606], the IC50 (in experiment [1]; in experiment [8]; against EGFR L858R (Ba/F3 cells) [2]; in experiment [3]; in experiment [9]; on EGFR L858R (Ba/F3 cells) [4]) was less than 100 nM each time. For the same compound, the IC50 was less than 100 nM in [10]; less than 100 nM in experiment [5]; 100 to 1000 nM on EGFR WT (Ba/F3 cells); less than 100 nM in [6]; less than 100 nM in experiment [7]; less than 100 nM on EGFR (CUTO14 cells).
Consider `COc1c(Cl)cccc1Nc1c(-c2ccncn2)[nH]c2c1C(=O)NC[C@H]2C[C@@H]1COCCO1` [Compound 568, (7R)-3-[(3-chloro-2-methoxyphenyl)amino]-7-[(2R)-1,4-dioxan-2-ylmethyl]-2-(pyrimidin-4-yl)-1H,5H,6H,7H-pyrrolo[3,2-c]pyridin-4-one], for which the IC50 (in [1]; at EGFR L858R (Ba/F3 cells) [2]; in experiment [3]; on EGFR L858R (Ba/F3 cells) [4]; in experiment [10]; in [5]) was less than 100 nM throughout. For the same compound, the IC50 on EGFR WT (Ba/F3 cells) was 100 to 1000 nM; in experiment [6] it was less than 100 nM; in experiment [7], less than 100 nM; on EGFR (CUTO14 cells), less than 100 nM.
On to `COc1c(F)cccc1Nc1c(-c2ccncn2)[nH]c2c1C(=O)NC[C@H]2C[C@@H]1COCCO1` [Compound 569, (7R)-7-[(2R)-1,4-dioxan-2-ylmethyl]-3-[(3-fluoro-2-methoxyphenyl)amino]-2-(pyrimidin-4-yl)-1H,5H,6H,7H-pyrrolo[3,2-c]pyridin-4-one], for which the IC50 (in [1]; in [8]; at EGFR L858R (Ba/F3 cells) [2]; in [3]; in [9]; on EGFR L858R (Ba/F3 cells) [4]) was less than 100 nM in each case. Besides, the IC50 in experiment [10] was less than 100 nM; in experiment [5], less than 100 nM; at EGFR WT (Ba/F3 cells), 100 to 1000 nM; in experiment [6], less than 100 nM; in experiment [7] it was less than 100 nM; on EGFR (CUTO14 cells), less than 100 nM.
Turning to `COc1c(F)cccc1Nc1c(-c2ccnc3ccc(OC4(C)COC4)nc23)[nH]c2c1C(=O)NCC2` [Compound 788, 3-[(3-fluoro-2-methoxyphenyl)amino]-2-[6-[(3-methyloxetan-3-yl)oxy]-1,5-naphthyridin-4-yl]-1H,5H,6H,7H-pyrrolo[3,2-c]pyridin-4-one], the IC50 (in [1]; in [8]; on EGFR L858R (Ba/F3 cells) [2]; in [3]; in experiment [9]; at EGFR L858R (Ba/F3 cells) [4]) was less than 100 nM in each case. The IC50 (in experiment [10]; in experiment [5]; at EGFR WT (Ba/F3 cells); in experiment [6]; in [7]) was less than 100 nM throughout.
`COc1c(Cl)cccc1Nc1c(-c2ccnc3ccc(C)nc23)[nH]c2c1C(=O)NCC2` [compound 749, 3-[(3-chloro-2-methoxyphenyl)amino]-2-(6-methyl-1,5-naphthyridin-4-yl)-1H,5H,6H,7H-pyrrolo[3,2-c]pyridin-4-one]: the IC50 (in experiment [1]; in experiment [8]; against EGFR L858R (Ba/F3 cells) [2]; in experiment [3]; in experiment [9]; on EGFR L858R (Ba/F3 cells) [4]) was less than 100 nM in each case. In addition, the IC50 in experiment [10] is less than 100 nM; in experiment [5] it was less than 100 nM; on EGFR WT (Ba/F3 cells), 100 to 1000 nM; in [6], less than 100 nM; in experiment [7], less than 100 nM.
As to `COc1c(Cl)cccc1Nc1c(-c2ccncc2F)[nH]c2c1C(=O)NC[C@]21CCN(CC(F)F)C1` [compound 821], the IC50 (in experiment [1]; in experiment [8]; against EGFR L858R (Ba/F3 cells) [2]; in experiment [3]; in experiment [9]; at EGFR L858R (Ba/F3 cells) [4]) was less than 100 nM each time. Further, the IC50 in experiment [10] is less than 100 nM; in [5] it was less than 100 nM; at EGFR WT (Ba/F3 cells), 100 to 1000 nM; in experiment [6] it was less than 100 nM; in experiment [7] it was less than 100 nM.
Turning to `CCOc1ncc2nccc(-c3[nH]c4c(c3Nc3cccc(Cl)c3OC)C(=O)NCC4)c2n1` [compound 827, 3-[(3-chloro-2-methoxyphenyl)amino]-2-{2-ethoxypyrido[3,2-d]pyrimidin-8-yl}-1H,5H,6H,7H-pyrrolo[3,2-c]pyridin-4-one], the IC50 (in [1]; in experiment [8]; against EGFR L858R (Ba/F3 cells) [2]; in [3]; in experiment [9]; on EGFR L858R (Ba/F3 cells) [4]) was less than 100 nM throughout. The IC50 (in [10]; in experiment [5]; on EGFR WT (Ba/F3 cells); in experiment [6]; in experiment [7]) was less than 100 nM each time.
